Several values for one entry are separate records, joined by “and”; a condition that tells them apart may be missing. Equal entries are not always repeated.

The subject of the assay is thermally-induced nociception in rats. Nature of the assay: Tail-flick test (thermally-induced nociception) in rats. It counts as in vivo, rat (male Sprague-Dawley). Conditions: i.p., rat, cut off 10 seconds. The method, then:
The purpose of the study was to determine the analgesic effect of tetrahydrocannabinol (Δ-9 THC) alone, Morphine Alone and Δ-9 THC in combination with Morphine on thermal-induced pain was determined. […] The dose response curve for the tail flick test and the analgesic effects of various doses of Morphine alone, Δ-9 THC alone as well as various doses of Δ-9 THC combined with various doses of morphine was determined by comparing pre-injection baseline values to post-injection values.
The tail-flick test was performed according to the following procedure:
Male Sprague-Dawley rats all with an approximate age of 85 to 90 days were each weighed prior to being subjected to any tests, on the day of the experiment. Each rat was only used for one day of experiments, and given only one dose, or dose combination. • 1. Prior to tail-flick test, rats are habituated for three days to handling and the tail flick procedure, without heat exposure. • 2. On the day of the experiment, warm up the tail-flick apparatus (IITC Model 33, Life Science, Woodland Hills, Calif.) for at least 30 minutes. • 3. Adjust the intensity of the lamp so that baseline tail-flick latency for rats is equal to approximately 2.0 seconds. […] Place rat in a mitten and blacken tail with ink approximately 2 inches in length at 1 inch from the tip of the tail. • 6. Place the tail flatly in the groove of the tail-flick apparatus. • 7. Push start to begin heat exposure. The lamp will turn off automatically when the tail flicks from the heat source. • 8. For each rat, a baseline score is determined prior to injection. TFL (tail flick latency) is measured twice in an approximate 15 minute intervals and an average of the two times determines the baseline. • 9. Once the baseline value is determined, TFL is measured, following the injection of drugs, at times 15, 30, 60 and 120 minutes.
All solutions were made on the day of the experiment. Not all of the solutions described below were used in every experiment. The drug combinations vary for each experiment. Each particular combination for an experiment is reported in the corresponding table below.
Each animal is given an injection of morphine that is 1 ml/kg body weight, and an injection of THC or control that is varies by dose and the injection volume is calculated as set forth above.

[1] abbreviates: Example 10, dose Z: 2 mg/kg morphine 30 minutes after vehicle.

With `CN1CC[C@]23c4c5ccc(O)c4O[C@H]2[C@@H](O)C=C[C@H]3[C@H]1C5` [Morphine], the “Tail Flick Latency (TFL, seconds) 15 min” value is, setting by setting: (Example 7, dose Z: vehicle and 2 mg/kg morphine, 15 min) 3.08 s and 3.12 s and 2.28 s; (Example 10, dose Z: 2 mg/kg morphine 30 minutes after vehicle, 15 min) 2.41 s and 2.99 s and 3.89 s and 2.36 s and 2.97 s and 3.02 s; (dose B: 3 mg/kg morphine and vehicle, 15 min post-injection) 2.38 s and 2.19 s and 2.74 s. Also, the “Tail Flick Latency (TFL, seconds) 30 min” value runs as follows: (Example 7, dose Z: vehicle and 2 mg/kg morphine) 2.96 s and 2.83 s and 4.73 s; (Example 9, dose Z: 2 mg/kg Morphine and vehicle) 4.22 s and 4.99 s and 3.00 s; under setting [1], 2.90 s and 3.58 s and 4.86 s and 4.07 s and 4.39 s and 3.90 s. Also, the “Tail Flick Latency (TFL, seconds) 60 min” value runs as follows: (Example 7, dose Z: vehicle and 2 mg/kg morphine, 60 min) 2.22 s and 3.69 s and 3.85 s; (Example 9, dose Z: 2 mg/kg Morphine and vehicle, 60 min) 2.91 s and 5.25 s and 3.97 s; (Example 10, dose Z: 2 mg/kg morphine 30 minutes after vehicle, 60 min) 3.26 s and 3.14 s and 3.96 s and 3.86 s and 3.99 s and 4.01 s; (dose B: 3 mg/kg morphine and vehicle, 60 min post-injection) 5.36 s and 4.63 s and 4.80 s. Also, the “Tail Flick Latency (TFL, seconds) 120 min” value by setting is: (Example 9, dose Z: 2 mg/kg Morphine and vehicle, 120 min) 2.68 s and 4.83 s and 2.67 s; (Example 10, dose Z: 2 mg/kg morphine 30 minutes after vehicle, 120 min) 2.68 s and 2.94 s and 3.18 s and 3.06 s and 3.23 s; (dose B: 3 mg/kg morphine and vehicle, 120 min post-injection) 4.02 s and 4.55 s and 3.99 s. The “Tail Flick Latency (TFL, seconds) 180 min” value under setting [1] was 2.15 s and 2.64 s and 2.59 s and 2.18 s and 2.56 s and 2.67 s.

Turning to `CCCCCc1cc(O)c2c(c1)OC(C)(C)[C@@H]1CCC(C)=C[C@@H]21` [Δ-9 THC, delta-9-tetrahydrocannabinol], the “Tail Flick Latency (TFL, seconds) 15 min” value runs as follows: (Example 6, dose X: saline and 2 mg/kg Δ-9 THC, 15 min) 2.33 s and 1.77 s and 2.10 s; (Example 8, dose X: saline and 2 mg/kg Δ-9 THC, 15 min) 2.57 s and 1.88 s and 3.65 s; (dose E: saline and 1 mg/kg Δ-9 THC, 15 min) 2.12 s and 2.03 s. Besides, the “Tail Flick Latency (TFL, seconds) 180 min” value (dose C: saline and 8 mg/kg Δ-9 THC) was 10.0 s. Also, the “Tail Flick Latency (TFL, seconds) 240 min” value (dose C: saline and 8 mg/kg Δ-9 THC, 240 min) is 9.21 s and 8.98 s and 7.28 s. Besides, the “Tail Flick Latency (TFL, seconds) 30 min” value by setting is: (dose E: saline and 1 mg/kg Δ-9 THC) 2.56 s and 2.15 s; (dose G: saline and 4 mg/kg Δ-9 THC) 5.07 s and 5.89 s and 5.10 s. Moreover, the “Tail Flick Latency (TFL, seconds) 60 min” value was 3.98 s and 5.07 s (dose E: saline and 1 mg/kg Δ-9 THC, 60 min); 6.24 s and 8.76 s and 6.48 s (dose G: saline and 4 mg/kg Δ-9 THC, 60 min). Also, the “Tail Flick Latency (TFL, seconds) 120 min” value (dose E: saline and 1 mg/kg Δ-9 THC, 120 min) is 4.20 s and 3.09 s.

(Values after patent publication US20080176885A1, “Novel synergistic opioid-cannabinoid codrug for pain management” (University of Kentucky, priority 2006, published 2008).)
